Test [1] concerns the target Tyrosine-protein kinase SYK (Homo sapiens, UniProt P43405). Description: Inhibition of SYK expressed in Escherichia coli or baculovirus-infected insect cells at 667 uM by TR-FRET assay.
The target of test [2] is Serine/threonine-protein kinase PAK 2 (Homo sapiens) (UniProt Q13177). Put plainly: Inhibition of PAK2 expressed in Escherichia coli or baculovirus-infected insect cells at 400 uM by IMAP assay.
Test [3] deals with T1, Tyrosine-protein kinase JAK3 (Homo sapiens) (UniProt P52333).
T1 sequence (whole entry): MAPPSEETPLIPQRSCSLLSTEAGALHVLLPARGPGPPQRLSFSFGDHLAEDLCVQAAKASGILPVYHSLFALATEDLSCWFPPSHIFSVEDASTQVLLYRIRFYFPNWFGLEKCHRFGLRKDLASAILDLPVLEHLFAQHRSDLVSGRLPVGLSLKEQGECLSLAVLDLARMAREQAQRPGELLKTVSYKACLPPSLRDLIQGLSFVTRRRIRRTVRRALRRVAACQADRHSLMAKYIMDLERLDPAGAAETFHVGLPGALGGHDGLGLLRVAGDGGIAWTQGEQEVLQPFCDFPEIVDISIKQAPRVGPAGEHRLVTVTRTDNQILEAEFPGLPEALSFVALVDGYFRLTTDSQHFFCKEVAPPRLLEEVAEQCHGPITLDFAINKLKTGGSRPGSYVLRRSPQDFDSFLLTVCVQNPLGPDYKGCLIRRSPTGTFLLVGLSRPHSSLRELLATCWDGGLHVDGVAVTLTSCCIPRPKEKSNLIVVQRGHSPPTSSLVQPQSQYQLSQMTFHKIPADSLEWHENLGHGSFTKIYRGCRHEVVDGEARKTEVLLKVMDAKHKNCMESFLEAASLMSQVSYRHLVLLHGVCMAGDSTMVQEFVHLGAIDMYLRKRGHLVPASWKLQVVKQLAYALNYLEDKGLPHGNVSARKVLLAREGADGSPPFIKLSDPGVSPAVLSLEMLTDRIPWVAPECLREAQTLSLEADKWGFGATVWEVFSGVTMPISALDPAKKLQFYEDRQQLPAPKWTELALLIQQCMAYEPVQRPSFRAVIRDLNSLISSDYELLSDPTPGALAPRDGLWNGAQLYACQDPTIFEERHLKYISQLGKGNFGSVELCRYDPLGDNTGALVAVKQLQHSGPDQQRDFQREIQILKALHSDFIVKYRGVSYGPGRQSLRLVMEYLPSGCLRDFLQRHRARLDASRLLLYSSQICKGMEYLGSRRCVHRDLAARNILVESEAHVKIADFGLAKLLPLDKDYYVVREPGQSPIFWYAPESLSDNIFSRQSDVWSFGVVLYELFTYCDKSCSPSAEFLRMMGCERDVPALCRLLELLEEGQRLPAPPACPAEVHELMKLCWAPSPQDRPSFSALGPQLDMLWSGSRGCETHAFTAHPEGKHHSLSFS
Description: Inhibition of JAK3 expressed in Escherichia coli or baculovirus-infected insect cells at 667 uM by TR-FRET assay. (In general: In TR-FRET formats the signal depends on donor and acceptor labels being close together.)

The target of test [4] is MAP kinase-activated protein kinase 2 (Homo sapiens) (UniProt P49137). Put plainly: Inhibition of MK2 expressed in Escherichia coli or baculovirus-infected insect cells at 667 uM by IMAP assay.
MAP kinase-activated protein kinase 2 (Homo sapiens), sequence (P49137 whole entry, looked up): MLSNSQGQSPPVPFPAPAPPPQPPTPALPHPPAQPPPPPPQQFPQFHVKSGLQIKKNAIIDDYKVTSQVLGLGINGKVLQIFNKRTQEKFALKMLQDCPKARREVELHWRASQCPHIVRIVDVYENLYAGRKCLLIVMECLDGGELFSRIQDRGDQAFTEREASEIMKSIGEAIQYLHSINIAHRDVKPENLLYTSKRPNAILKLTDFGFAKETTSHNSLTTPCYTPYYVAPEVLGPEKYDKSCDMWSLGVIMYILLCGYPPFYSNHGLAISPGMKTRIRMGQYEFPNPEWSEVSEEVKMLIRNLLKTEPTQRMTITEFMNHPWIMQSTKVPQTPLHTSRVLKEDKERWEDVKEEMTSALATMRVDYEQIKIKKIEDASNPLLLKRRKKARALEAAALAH
For test [5], the target named is T2, Mitogen-activated protein kinase kinase kinase 5 (Homo sapiens) (UniProt Q99683).
T2 sequence (whole entry): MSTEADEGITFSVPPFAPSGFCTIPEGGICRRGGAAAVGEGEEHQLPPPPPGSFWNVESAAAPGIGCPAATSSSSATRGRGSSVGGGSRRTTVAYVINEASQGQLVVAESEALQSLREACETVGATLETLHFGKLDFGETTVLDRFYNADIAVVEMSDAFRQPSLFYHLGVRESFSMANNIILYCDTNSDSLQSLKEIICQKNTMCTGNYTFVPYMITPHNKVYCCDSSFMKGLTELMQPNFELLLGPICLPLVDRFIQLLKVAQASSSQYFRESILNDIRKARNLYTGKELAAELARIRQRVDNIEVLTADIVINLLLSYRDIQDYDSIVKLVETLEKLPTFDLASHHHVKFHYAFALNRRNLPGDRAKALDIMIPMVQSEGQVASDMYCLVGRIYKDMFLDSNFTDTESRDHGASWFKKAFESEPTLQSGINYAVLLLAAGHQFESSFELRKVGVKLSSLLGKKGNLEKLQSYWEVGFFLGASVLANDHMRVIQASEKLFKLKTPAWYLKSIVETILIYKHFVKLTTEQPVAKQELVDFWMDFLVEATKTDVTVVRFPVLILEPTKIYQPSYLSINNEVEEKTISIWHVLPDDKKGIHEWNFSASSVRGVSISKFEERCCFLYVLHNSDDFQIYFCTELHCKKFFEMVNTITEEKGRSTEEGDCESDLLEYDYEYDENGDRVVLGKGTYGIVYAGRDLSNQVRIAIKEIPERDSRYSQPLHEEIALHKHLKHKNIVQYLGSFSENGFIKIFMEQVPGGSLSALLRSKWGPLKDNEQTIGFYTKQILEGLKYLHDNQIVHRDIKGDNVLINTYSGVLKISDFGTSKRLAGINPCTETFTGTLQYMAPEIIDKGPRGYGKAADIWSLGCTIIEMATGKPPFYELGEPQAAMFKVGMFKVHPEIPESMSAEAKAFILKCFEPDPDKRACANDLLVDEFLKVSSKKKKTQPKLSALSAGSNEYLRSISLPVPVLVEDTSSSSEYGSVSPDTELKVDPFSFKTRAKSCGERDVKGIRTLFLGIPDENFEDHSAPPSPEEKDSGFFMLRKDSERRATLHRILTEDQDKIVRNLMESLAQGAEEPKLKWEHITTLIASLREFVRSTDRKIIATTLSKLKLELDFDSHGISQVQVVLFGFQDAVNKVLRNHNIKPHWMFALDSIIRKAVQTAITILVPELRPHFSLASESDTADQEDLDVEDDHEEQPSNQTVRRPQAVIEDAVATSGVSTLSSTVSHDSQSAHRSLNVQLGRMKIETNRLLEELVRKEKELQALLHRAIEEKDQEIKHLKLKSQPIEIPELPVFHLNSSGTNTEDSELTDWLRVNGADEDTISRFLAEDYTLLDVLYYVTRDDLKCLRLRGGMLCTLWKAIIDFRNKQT
Put plainly: Inhibition of ASK1 expressed in Escherichia coli or baculovirus-infected insect cells at 667 uM by IMAP assay.

Test [6] deals with Receptor tyrosine-protein kinase erbB-4 (Homo sapiens) (UniProt Q15303). Put plainly: Inhibition of ErbB4 expressed in Escherichia coli or baculovirus-infected insect cells at 400 to 667 uM by TR-FRET assay.
Receptor tyrosine-protein kinase erbB-4 (Homo sapiens), sequence (Q15303 whole entry): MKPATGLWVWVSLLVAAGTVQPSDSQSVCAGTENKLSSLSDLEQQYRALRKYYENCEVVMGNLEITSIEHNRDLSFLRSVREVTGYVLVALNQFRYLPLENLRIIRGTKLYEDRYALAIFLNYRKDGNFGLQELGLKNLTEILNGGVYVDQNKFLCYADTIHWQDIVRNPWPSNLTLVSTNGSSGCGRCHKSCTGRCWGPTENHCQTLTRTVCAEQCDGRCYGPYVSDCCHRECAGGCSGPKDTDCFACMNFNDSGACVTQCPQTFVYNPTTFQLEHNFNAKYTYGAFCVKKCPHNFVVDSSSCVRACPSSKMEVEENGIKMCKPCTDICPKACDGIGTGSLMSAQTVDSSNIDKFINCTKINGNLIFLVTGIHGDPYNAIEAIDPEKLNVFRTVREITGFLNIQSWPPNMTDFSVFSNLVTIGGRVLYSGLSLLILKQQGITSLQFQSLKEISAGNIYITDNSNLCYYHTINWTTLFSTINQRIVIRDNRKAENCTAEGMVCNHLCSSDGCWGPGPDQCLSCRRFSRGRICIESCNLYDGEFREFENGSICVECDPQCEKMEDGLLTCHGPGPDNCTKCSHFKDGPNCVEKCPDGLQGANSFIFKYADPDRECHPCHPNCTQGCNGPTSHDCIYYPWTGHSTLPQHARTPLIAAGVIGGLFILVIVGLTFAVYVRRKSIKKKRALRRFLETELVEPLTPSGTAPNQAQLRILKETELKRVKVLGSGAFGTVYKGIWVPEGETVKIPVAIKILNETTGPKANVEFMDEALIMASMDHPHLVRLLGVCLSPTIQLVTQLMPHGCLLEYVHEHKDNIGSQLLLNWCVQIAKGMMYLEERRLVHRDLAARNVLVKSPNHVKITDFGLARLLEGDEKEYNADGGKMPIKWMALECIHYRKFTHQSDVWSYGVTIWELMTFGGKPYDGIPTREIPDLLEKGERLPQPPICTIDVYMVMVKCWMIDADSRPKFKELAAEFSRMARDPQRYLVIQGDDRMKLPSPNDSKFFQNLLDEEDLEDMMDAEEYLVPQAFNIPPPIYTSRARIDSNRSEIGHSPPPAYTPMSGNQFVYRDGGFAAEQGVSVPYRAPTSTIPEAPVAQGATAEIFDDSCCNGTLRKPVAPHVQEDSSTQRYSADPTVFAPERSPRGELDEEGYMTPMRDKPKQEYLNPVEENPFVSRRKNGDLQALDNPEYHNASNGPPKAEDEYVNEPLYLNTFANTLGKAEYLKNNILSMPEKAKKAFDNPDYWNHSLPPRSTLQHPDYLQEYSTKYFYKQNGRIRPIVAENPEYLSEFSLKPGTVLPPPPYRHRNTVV
For test [7], the target named is Glycogen synthase kinase-3 beta (Homo sapiens) (UniProt P49841). Put plainly: Inhibition of GSK3-beta expressed in Escherichia coli or baculovirus-infected insect cells using ATP as substrate at 667 uM by fluorescence polarization assay. For orientation: In fluorescence polarisation assays a small probe gives low polarisation when free and higher when bound to something large.
Glycogen synthase kinase-3 beta (Homo sapiens), sequence (P49841 whole entry, looked up): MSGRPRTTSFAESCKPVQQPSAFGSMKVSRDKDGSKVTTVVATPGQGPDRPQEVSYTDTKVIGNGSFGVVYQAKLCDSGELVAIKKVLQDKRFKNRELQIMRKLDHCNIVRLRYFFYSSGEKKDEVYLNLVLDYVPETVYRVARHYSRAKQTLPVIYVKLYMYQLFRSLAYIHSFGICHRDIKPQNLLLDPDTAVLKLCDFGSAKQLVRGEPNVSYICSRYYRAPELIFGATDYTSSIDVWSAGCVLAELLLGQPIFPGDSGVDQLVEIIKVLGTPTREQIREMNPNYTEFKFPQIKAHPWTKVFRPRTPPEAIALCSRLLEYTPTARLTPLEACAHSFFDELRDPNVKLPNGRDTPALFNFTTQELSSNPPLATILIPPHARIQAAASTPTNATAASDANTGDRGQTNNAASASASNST

In test [8] the target is Tyrosine-protein kinase Fes/Fps (Homo sapiens) (UniProt P07332). Description: Inhibition of FES expressed in Escherichia coli or baculovirus-infected insect cells using ATP as substrate at 400 uM by fluorescence polarization assay.
Tyrosine-protein kinase Fes/Fps (Homo sapiens), sequence (P07332 whole entry): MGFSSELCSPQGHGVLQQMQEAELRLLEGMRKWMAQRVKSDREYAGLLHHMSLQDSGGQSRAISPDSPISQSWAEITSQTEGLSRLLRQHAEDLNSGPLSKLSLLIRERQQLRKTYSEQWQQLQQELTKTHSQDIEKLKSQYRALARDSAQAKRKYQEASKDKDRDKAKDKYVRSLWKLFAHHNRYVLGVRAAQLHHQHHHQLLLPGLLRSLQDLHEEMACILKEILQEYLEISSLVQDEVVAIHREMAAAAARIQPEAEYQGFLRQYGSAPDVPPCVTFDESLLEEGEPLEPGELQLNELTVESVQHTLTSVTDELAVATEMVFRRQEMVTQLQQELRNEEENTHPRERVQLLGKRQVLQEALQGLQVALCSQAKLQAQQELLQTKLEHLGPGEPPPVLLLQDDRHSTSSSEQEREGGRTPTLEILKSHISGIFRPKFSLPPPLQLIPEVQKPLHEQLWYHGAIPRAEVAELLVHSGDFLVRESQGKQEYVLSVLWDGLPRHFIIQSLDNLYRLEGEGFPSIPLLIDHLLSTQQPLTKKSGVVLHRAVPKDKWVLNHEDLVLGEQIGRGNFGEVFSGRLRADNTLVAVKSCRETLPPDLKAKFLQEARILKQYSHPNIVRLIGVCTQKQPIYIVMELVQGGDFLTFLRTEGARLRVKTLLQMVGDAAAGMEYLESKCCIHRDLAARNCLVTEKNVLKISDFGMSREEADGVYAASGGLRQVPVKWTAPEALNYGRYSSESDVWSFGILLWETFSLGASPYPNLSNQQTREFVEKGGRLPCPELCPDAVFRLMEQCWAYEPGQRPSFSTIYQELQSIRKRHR

Serine/threonine-protein kinase PAK 2 (Homo sapiens), sequence (Q13177 whole entry): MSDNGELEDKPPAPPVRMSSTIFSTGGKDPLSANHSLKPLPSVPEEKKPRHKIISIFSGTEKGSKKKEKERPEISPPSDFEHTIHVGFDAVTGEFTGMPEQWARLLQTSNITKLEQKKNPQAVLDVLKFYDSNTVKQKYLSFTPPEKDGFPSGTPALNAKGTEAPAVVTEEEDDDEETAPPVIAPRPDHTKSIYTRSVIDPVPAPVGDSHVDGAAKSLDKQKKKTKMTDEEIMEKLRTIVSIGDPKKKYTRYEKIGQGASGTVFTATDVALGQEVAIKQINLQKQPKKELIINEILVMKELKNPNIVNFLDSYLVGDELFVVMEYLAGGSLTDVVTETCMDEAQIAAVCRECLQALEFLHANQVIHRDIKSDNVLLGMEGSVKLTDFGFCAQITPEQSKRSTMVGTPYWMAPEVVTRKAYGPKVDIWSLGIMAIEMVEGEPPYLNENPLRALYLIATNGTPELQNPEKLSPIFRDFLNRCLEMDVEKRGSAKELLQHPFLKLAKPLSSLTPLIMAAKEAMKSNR

A word on the inhibition: it is the percentage by which the read-out fell short of the control. As to `Nc1ccc2ncc(-c3ccccc3)n2n1`, the inhibition in test [1] came out at 86%; in test [2] it was 32%; in test [3] it was 74%; in test [4], 28%; in test [5], 77%; in test [6], 47%. In addition, the results for the inhibition in test [7] and in test [8] were 66% and 68%, respectively.

For the origin of these results see ChEMBL document CHEMBL1817560, “Selectivity of kinase inhibitor fragments” (J Med Chem, 2011).
